Non-standard residues stand in square brackets, D forms with d. Residues, ends and D or L forms follow the SMILES beside them. *: point of attachment. Nva = CCC[C@H](N)C(=O)O; Cbz = O=C(OCc1ccccc1)*
Legend:
[1] = target: native T. cruzi proteasome (caspase-like activity, β1) (Trypanosoma cruzi, UniProt V5BHX1); test: Caspase-like activity assay (Proteasome-Glo), native T. cruzi proteasome; format: biochemical; conditions: mean ± SD, N = 3; for IC50: read-out: pIC50, Caspase Assay, Native (converted)
Experimental: (§1) Chymotrypsin-, trypsin-, and caspase-like activity assays were performed using a commercially available Proteasome-Glo 3-substrate system assay kit (catalog number G8532) (Promega Corporation) according to the manufacturers protocols and as previously described ([24]).
(§2) Prior to running assays, Proteasome-Glo buffer was used to reconstitute the luciferin detection reagent (containing a recombinant thermostable luciferase enzyme). The resuspended luciferin detection reagent was then mixed with Proteasome-Glo chymotrypsin-, trypsin- or caspase-like substrates (either 40 μM suc-Leu-Leu-Val-Tyr-aminoluciferin, 30 μM Z-Leu-Arg-Arg-aminoluciferin (Z is benzyloxycarbonyl) or 40 μM Z-Nle-Pro-Nle-Asp-aminoluciferin respectively (these concentrations represent 2x final assay concentrations)). These substrate mixtures were allowed to incubate at room temperature for 60 min prior to use to allow the removal of any contaminating free aminoluciferin.
(§3) When proteasome inhibitors were to be screened in the chymotrypsin, trypsin, and caspase assays, test compounds were dispensed into assay wells using an ECHO 550 acoustic dispenser (Labcyte) (final DMSO concentration 1%). Compounds were tested in either a 10-point concentration series (30 μM top final assay concentration, 1 in 3 dilution series) or a 12-point concentration series (30 μM top final assay concentration, 1 in 2.5 dilution series).
(§4) Proteasome assays were then performed as described above using Promega Proteasome-Glo 3-substrate system assay kit. […] Diluted proteasome (4 μl) was added to assay plates using an electronic multichannel pipette (Integra Biosciences Ltd) and the proteasome incubated with compound for 60 min at room temperature.
(§5) Following the 60 min incubation of proteasome and compounds, assays were initiated with the addition of 4 μl of a substrate mix (containing substrate and the luciferin detection reagent) using an electronic multichannel pipette. Final assay concentrations of substrates used were either 20 μM Suc-Leu-Leu-Val-Tyr-aminoluciferin, 15 μM Z-Leu-Arg-Arg-aminoluciferin, or 20 μM Z-Nle-Pro-Nle-Asp-aminoluciferin for chymotrypsin-, trypsin-, or caspase-like activity, respectively. Following a further 60 min assay incubation, luminescence was read using an EnVision 2102 Multilabel Reader (PerkinElmer, Inc) with 0.2 s per well reading time.
(§6) All data processing was performed using Microsoft Excel for Microsoft 365 software.
(§7) Nonlinear dose-response curve fitting was carried out using the Microsoft Excel add-in, XLfit (IDBS). Percentage inhibition data were either fitted to a standard 4-parameter logistic fit model (XLfit model 205; Equation 2) or a biphasic model (either XLfit model 300; Equation 3 or a custom biphasic model; Equation 4 (used in cases where the top and/or bottom parameters deviated from 100%/0% inhibition)).(2) y=A+(B−A)/1+(C/x)^D Where A = % inhibition at bottom, B = % inhibition at top, C = IC50, D = slope, x = inhibitor concentration and y = % inhibition.(3) y=(A/(1+10^(C−log(x))∗B))+((100−A)/(1+10^(D−log(x))∗B)) With A = % inhibition at midplateau, B = slope, C = log(IC50^A), D = log(IC50^B)).
(§8) All IC50 data generated were converted to pIC50 using Equation 5.

[2] = target: recombinant WT T. cruzi proteasome (caspase-like activity, β1) (Trypanosoma cruzi, UniProt V5BHX1); test: Caspase-like activity assay (Proteasome-Glo), recombinant wild-type T. cruzi proteasome; format: biochemical; conditions: for pIC50, Caspase Assay, Wild-type: mean ± SD, N = 3
Experimental: as §1, §2, §3, §4, §5, §6, §7, §8

[3] = target: recombinant β4^R mutant T. cruzi proteasome (caspase-like activity) (Trypanosoma cruzi, UniProt V5BHX1); test: Caspase-like activity assay (Proteasome-Glo), recombinant β4^R mutant T. cruzi proteasome; format: biochemical; conditions: for pIC50, Caspase Assay, β4^R mutant: mean ± SD, N = 3
Experimental: (§9) Point mutations were created in individual subunits using overlapping PCR from the original templates using Polh and Tn7L primers outside the genes and suitable internal primers to introduce selected mutations. For Δβ1Δβ2, β1 Thr 55, and β2 Thr 67 were both mutated to Ala, the β4^R mutant was produced by mutating Phe 24 and Ile 29 to Leu and Met respectively in β4 subunit.
as §1, §2
(§10) Proteasome assays were carried out using 384-well, white, low-volume plates (catalog number 784904) (Greiner Bio-One) at room temperature (∼23 °C) in 8 μl reaction volumes. When activity checks were to be run in the presence or absence of a fixed concentration of proteasome inhibitor, 80 nL of the inhibitor (at a concentration 100x the required final assay concentration), or 80 nL dimethylsulfoxide (DMSO), were dispensed into assay plates using an Echo 550 acoustic dispenser (Labcyte).
(§11) A 1 in 2 dilution series of the various T. cruzi proteasome samples (native, recombinant WT, β4^R mutant, and Δβ1Δβ2 mutant) were produced in assay buffer (50 mM Tris–HCl, pH 7.5, 10 mM sucrose, 5 mM MgCl2, 1 mM DTT, 2 mM ATP, 150 mM NaCl, 1 mM EDTA, and 0.05 mg/ml bovine serum albumin). Subsequently, 4 μl of the various concentrations of diluted proteasome were added to assay plates using an electronic multichannel pipette (Integra Biosciences Ltd). When kinetic read activity checks were performed (Fig. 2), proteasome final assay concentrations used were 115 μg/ml, 115 μg/ml, and 230 μg/ml native proteasome (in the chymotrypsin, trypsin, and caspase assays, respectively), and 4.1 μg/ml, 3.4 μg/ml, or 1.4 μg/ml recombinant WT proteasome (in the chymotrypsin, trypsin, and caspase assays, respectively). When activity checks were to be run in the presence or absence of a proteasome inhibitor plates containing inhibitor or DMSO control were incubated with the relevant proteasome sample for 60 min at room temperature (this step was not included in activity check experiments where compounds were not used).
(§12) Following the 60 min incubation of proteasome and compound (if required), assays were initiated with the addition of 4 μl of substrate mix (containing substrate and the luciferin detection reagent) using an electronic multichannel pipette. Final assay concentrations of substrates used were either 20 μM Suc-Leu-Leu-Val-Tyr-aminoluciferin, 15 μM Z-Leu-Arg-Arg-aminoluciferin, or 20 μM Z-Nle-Pro-Nle-Asp-aminoluciferin for chymotrypsin-, trypsin- or caspase-like activity respectively.
(§13) Luminescence was read either kinetically or as an endpoint read using an EnVision 2102 Multilabel Reader (PerkinElmer, Inc) with 0.2 s per well reading time. When kinetic assays were run, luminescence was read every 5 min for 90 min. Endpoint assays were run for 60 min before luminescence was read. All data processing and linear fit analyses were performed using Microsoft Excel for Microsoft 365 software (Redmond, Washington; https://www.microsoft.com/).

[4] = target: native T. cruzi proteasome (chymotrypsin-like activity, β5) (Trypanosoma cruzi, UniProt V5BU39+V5C017); test: Chymotrypsin-like activity assay (Proteasome-Glo), native T. cruzi proteasome; format: biochemical; conditions: for pIC50, Chymotrypsin Assay, Native: mean ± SD, N = 3, biphasic curves (a): pIC50 of most potent curve, 60 min preincubation
Experimental: as §1, §2, §3, §4, §5, §6, §7, §8

[5] = target: recombinant WT T. cruzi proteasome (chymotrypsin-like activity, β5) (Trypanosoma cruzi, UniProt V5BU39+V5C017); test: biochemical; format: biochemical; conditions: for maximum % inhibition plateau, Chymotrypsin Assay, Wild-type: mean ± SD, N = 3 (N = 2 for DDD02091966), (a) mid-point plateau from biphasic curve fits
Experimental: as §1, §2, §10, §11, §12, §13, §3

[6] = target: recombinant Δβ1Δβ2 mutant T. cruzi proteasome (chymotrypsin-like activity) (Trypanosoma cruzi, UniProt V5BU39+V5C017); test: biochemical; format: biochemical; conditions: for maximum % inhibition plateau, Chymotrypsin Assay, Δβ1Δβ2 mutant / pIC50, Chymotrypsin Assay, Δβ1Δβ2 mutant: mean ± SD, N = 3
Experimental: as §9, §1, §2, §10, §11, §12, §13

[7] = target: recombinant β4^R mutant T. cruzi proteasome (chymotrypsin-like activity) (Trypanosoma cruzi, UniProt V5BU39+V5C017, F24L/I29M); test: biochemical; format: biochemical; conditions: for pIC50, Chymotrypsin Assay, β4^R mutant: mean ± SD, N = 3, biphasic curves (a): pIC50 of most potent curve
Experimental: as §9, §1, §2, §10, §11, §12, §13

[8] = target: native T. cruzi proteasome (trypsin-like activity, β2) (Trypanosoma cruzi, UniProt V5BCU3); test: Trypsin-like activity assay (Proteasome-Glo), native T. cruzi proteasome; format: biochemical; conditions: mean ± SD, N = 3; for IC50: read-out: pIC50, Trypsin Assay, Native (converted)
Experimental: as §1, §2, §3, §4, §5, §6, §7, §8

[9] = target: recombinant WT T. cruzi proteasome (trypsin-like activity, β2) (Trypanosoma cruzi, UniProt V5BCU3); test: biochemical; format: biochemical; conditions: mean ± SD, N = 3; for IC50: read-out: pIC50, Trypsin Assay, Wild-type (converted)
Experimental: as §1, §2, §3, §4, §5, §6, §7, §8

[10] = target: recombinant β4^R mutant T. cruzi proteasome (trypsin-like activity) (Trypanosoma cruzi, UniProt V5BCU3); format: biochemical; conditions: mean ± SD, N = 3
Experimental: as §9, §1, §2, §10, §11, §12, §13

[11] = test system: intracellular T. cruzi Silvio X10/7 A1 amastigotes; test: Intracellular T. cruzi assay; format: cell-based; conditions: Trypanosoma cruzi; 96 h compound treatment, Vero host cells; given as [mean pEC50, SD, N]; read-out: Mean pEC50 against intracellular T. cruzi parasites (converted)
Experimental: Potency against intracellular T. cruzi Silvio X10/7 A1 amastigotes was determined as described previously ([53]), with a sole modification that the compound treatment duration was 96 h instead of 72 h. Vero host cells were obtained from The European Collection of Authenticated Cell Cultures (cat. number 84113001) and tested for mycoplasma (negative). T. cruzi Silvio X10/7 A1 was obtained from Prof. Alan Fairlamb, and discrete typing unit confirmed by genotyping ([53]).

Compound | IC50 [1] [nM] | IC50 [2] [nM] | IC50 [3] [nM] | IC50 [4] [nM] | IC50 [5] [nM] | maximum % inhibition plateau, Chymotrypsin Assay, Wild-type [5] | IC50 [6] [nM] | IC50 [7] [nM] | IC50 [8] [nM] | IC50 [9] [nM] | pIC50, Trypsin Assay, β4^R mutant [10] | further results
CC(C)C[C@H](NC(=O)[C@H](Cc1ccccc1)NC(=O)c1cnccn1)B(O)O [Bortezomib] | 72.4 | 72.4 | 93.3 | – | – | – | – | – | – | – | – | –
O=C(Nc1ccc(F)c(-c2cn3nc(N4CCOCC4)cnc3n2)c1)N1CCCC1 [DDD01012247] | > 30200 | > 30200 | > 30200 | 12 | 16.2 | 68.9 ± 3.5% | 19.5 | 6920 | > 30200 | > 30200 | <4.52 | EC50 [11]: 126 nM
CNC(=O)c1cc(NC(=O)c2ccc(=O)n(Cc3ccc(OC)cc3)n2)ccc1F [DDD02097487] | > 30200 | > 30200 | > 30200 | 120 | 178 | 48.2 ± 3.6% | 155 | > 30200 | > 30200 | > 30200 | <4.52 | extent of inhibition in chymotrypsin dose-response curve, Δβ1Δβ2 mutant ([6]; top of dose-response curve): unable to fully inhibit; EC50 [11]: 794 nM
CC[C@H](C)[C@H](NC(=O)[C@H]([C@@H](C)CC)N(C)C(C)=O)C(=O)N[C@H](C(=O)N[C@@H](CC(C)C)C(=O)[C@@]1(C)CO1)[C@@H](C)O [Epoxomicin, reference compound] | – | – | – | – | – | 96.1 ± 3.0% | – | – | – | – | 6.11 ± 0.06 | pIC50, Chymotrypsin Assay, Native [4]: 7.50 ± 0.12; pIC50, Chymotrypsin Assay, Wild-type [5]: 7.40 ± 0.17; maximum % inhibition plateau, Chymotrypsin Assay, Δβ1Δβ2 mutant [6]: 100.1 ± 0.5%; pIC50, Chymotrypsin Assay, Δβ1Δβ2 mutant [6]: 7.44 ± 0.03; pIC50, Chymotrypsin Assay, β4^R mutant [7]: 7.33 ± 0.15; pIC50, Trypsin Assay, Native [8]: 6.08 ± 0.00; pIC50, Trypsin Assay, Wild-type [9]: 6.09 ± 0.04; pIC50, Caspase Assay, Native [1]: 5.99 ± 0.01; pIC50, Caspase Assay, Wild-type [2]: 5.97 ± 0.03; pIC50, Caspase Assay, β4^R mutant [3]: 5.88 ± 0.03
CC(C)C[C@H](NC(=O)CNC(=O)c1cc(Cl)ccc1Cl)B(O)O [Ixazomib, reference compound] | 44.7 | 55 | 46.8 | 35.5 | 19.5 | 52.7 ± 21.9^ a % | 22.9 | 13.2 | 8710 | 6920 | 5.53 ± 0.03 | –
CCC[C@@H](C=O)NC(=O)[C@H](CC(C)C)NC(=O)[C@H](CC(C)C)NC(=O)OCc1ccccc1 [MG115, reference compound] (Cbz-Leu-Leu-[Nva]-aldehyde) | – | – | – | – | – | 93.3 ± 2.9% | – | – | – | – | 5.24 ± 0.05 | pIC50, Chymotrypsin Assay, Native [4]: 6.04 ± 0.08; pIC50, Chymotrypsin Assay, Wild-type [5]: 6.07 ± 0.13; maximum % inhibition plateau, Chymotrypsin Assay, Δβ1Δβ2 mutant [6]: 99.4 ± 1.0%; pIC50, Chymotrypsin Assay, Δβ1Δβ2 mutant [6]: 6.38 ± 0.16; pIC50, Chymotrypsin Assay, β4^R mutant [7]: 6.24 ± 0.05; pIC50, Trypsin Assay, Native [8]: 4.89 ± 0.16; pIC50, Trypsin Assay, Wild-type [9]: 4.97 ± 0.09; pIC50, Caspase Assay, Native [1]: 4.79 ± 0.11; pIC50, Caspase Assay, Wild-type [2]: 4.77 ± 0.07; pIC50, Caspase Assay, β4^R mutant [3]: 5.03 ± 0.04
CC(C)C[C@@H](C=O)NC(=O)[C@H](CC(C)C)NC(=O)[C@H](CC(C)C)NC(=O)OCc1ccccc1 [MG132, carbobenzoxy-l-leucyl-l-leucyl-l-leucinal, reference compound] (Cbz-Leu-Leu-Leu-aldehyde) | 3980 | 3310 | 3090 | 120 | 115 | 66.1 ± 6.6^ a % | 91.2 | 60.3 | 8910 | 8320 | 5.21 ± 0.11 | –
COC[C@H](NC(=O)c1cnc(C)s1)C(=O)N[C@@H](COC)C(=O)N[C@@H](Cc1ccccc1)C(=O)[C@@]1(C)CO1 [Oprozomib] | > 30200 | > 30200 | > 30200 | – | – | – | – | – | > 30200 | > 30200 | <4.52 | –

From publication PMC11748689, “Pharmacological and structural understanding of the Trypanosoma cruzi proteasome provides key insights for developing site-specific inhibitors” (The Journal of Biological Chemistry, 2024)
